Reference: patent US20210395313A1, “PEPTIDE PAC1 ANTAGONISTS” (AMGEN INC., priority 2017, published 2021)
pIC50: −log10 of the molar value. Where a SMILES comes first, the peptide text is derived from it. Bridges are numbered along the chain shown (N, C = ends). Where no end group is shown, it is not given here. [ ]: non-standard residue; d: D form. SeMet = C[Se]CC[C@H](N)C(=O)O

Key:
[1] = molecular target: T1, human PAC1 receptor (Homo sapiens, UniProt P41586); assay: LANCE Ultra cAMP accumulation antagonist assay in SHSY-5Y cells; format: cell-based;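 further: inhibition of cAMP accumulation evoked by PAC1 agonist at its EC80 in SHSY-5Y cells endogenously expressing receptor, 30 min preincubation then 15 min agonist, TR-FRET readout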
T1 construct: SHSY-5Y (human neuroblastoma cell line) and RG-2 (rat glioma cell line) cells endogenously express human and rat PAC1 receptors, respectively; endogenous in cells; host or cells: SHSY-5Y human neuroblastoma cells
T1 sequence (P41586 21-468): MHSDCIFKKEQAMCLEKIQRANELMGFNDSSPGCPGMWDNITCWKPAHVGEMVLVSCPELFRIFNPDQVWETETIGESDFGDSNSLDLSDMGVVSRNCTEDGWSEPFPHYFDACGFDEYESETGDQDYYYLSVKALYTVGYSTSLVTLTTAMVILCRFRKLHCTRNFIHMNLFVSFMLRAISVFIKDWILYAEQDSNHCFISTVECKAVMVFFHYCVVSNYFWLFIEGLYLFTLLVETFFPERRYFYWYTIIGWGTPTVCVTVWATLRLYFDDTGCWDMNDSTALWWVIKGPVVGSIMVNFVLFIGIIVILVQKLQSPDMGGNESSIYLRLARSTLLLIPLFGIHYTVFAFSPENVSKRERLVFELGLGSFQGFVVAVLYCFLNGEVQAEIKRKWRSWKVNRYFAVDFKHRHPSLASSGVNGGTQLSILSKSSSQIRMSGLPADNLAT

[2] = molecular target: T2, rat PAC1 receptor (Rattus norvegicus, UniProt P32215); assay: LANCE Ultra cAMP accumulation antagonist assay in RG-2 cells; format: cell-based;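 further: RG-2 rat glioma cells endogenously expressing PAC1, test peptide preincubated 30 min, then PAC1 agonist added at its EC80 for 15 min, cAMP accumulation read by LANCE Ultra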
T2 construct: SHSY-5Y (human neuroblastoma cell line) and RG-2 (rat glioma cell line) cells endogenously express human and rat PAC1 receptors, respectively; endogenous in cells; host or cells: RG-2 rat glioma cells
T2 sequence (P32215 20-523): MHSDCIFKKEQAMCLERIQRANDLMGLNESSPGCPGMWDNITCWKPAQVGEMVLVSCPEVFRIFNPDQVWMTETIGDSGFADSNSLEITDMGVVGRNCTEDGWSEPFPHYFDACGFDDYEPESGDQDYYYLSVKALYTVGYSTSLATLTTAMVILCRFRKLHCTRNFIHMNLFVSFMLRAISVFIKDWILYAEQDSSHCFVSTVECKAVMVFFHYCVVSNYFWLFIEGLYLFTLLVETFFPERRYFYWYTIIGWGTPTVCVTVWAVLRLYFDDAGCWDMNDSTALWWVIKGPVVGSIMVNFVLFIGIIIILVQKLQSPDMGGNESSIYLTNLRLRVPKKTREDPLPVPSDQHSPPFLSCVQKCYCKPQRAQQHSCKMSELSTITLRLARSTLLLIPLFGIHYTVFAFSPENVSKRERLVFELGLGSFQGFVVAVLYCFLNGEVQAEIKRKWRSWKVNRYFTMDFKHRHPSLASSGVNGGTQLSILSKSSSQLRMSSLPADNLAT
Procedure: In order to determine the potency of peptide antagonists at the PAC1 receptor, functional cAMP accumulation assays using LANCE Ultra cAMP assay kit to measure the agonist and antagonist activity of PAC1 peptides were used. SHSY-5Y (human neuroblastoma cell line) and RG-2 (rat glioma cell line) cells endogenously express human and rat PAC1 receptors, respectively. Agonist activity of PAC1 peptides was tested by incubating with SHSY-5Y at 2,000 cells per well or RG-2 at 5,000 cells per well for 15 minutes at room temperature. PAC1 receptor agonist PACAP38 or maxadilan was included as a positive control. The reaction was stopped by adding detection mixture, europium (Eu) chelate-labeled cAMP tracer and cAMP-specific monoclonal antibodies labeled with the ULight™ dye, to all wells followed by a 60-minute incubation at room temperature. The assay plates were then read on an EnVision instrument at an emission wavelength of 665 and 615 nm and data were analyzed using Genedata Screener or GraphPad Prism software. A similar procedure was used in the antagonist assays by using a fixed concentration of PAC1 agonist. The concentrations of agonists were chosen based on their ECK) values at PAC1 receptors in SHSY-5Y or RG-2 cells. SHSY-5Y or RG-2 cells were added into 96-well half-area white plates. Serially diluted PAC1 peptides at ten concentrations were added and incubated for 30 minutes at room temperature. PAC1 agonist at EC80 concentration was then added and further incubated for 15 minutes at room temperature. The reaction was stopped by adding detection mixture to all wells followed by a 60-minute incubation at room temperature. The assay plates were read and analyzed the same way as that of agonist assay. Cells, agonists, and PAC1 peptides were prepared in freshly made assay buffer (F-12, 0.5 mM IBMX, 0.1 or 0.4% BSA (pH 7.4)). Detection mixture was made by mixing a 1/50 dilution of the Eu-cAMP tracer stock solution in cAMP Detection Buffer and a 1/150 dilution of the ULight-anti-cAMP stock solution in cAMP Detection Buffer. Europium (Eu) chelate-labeled cAMP tracer, cAMP-specific monoclonal antibodies labeled with the ULight™ dye, BSA, and detection buffer were provided in LANCE Ultra cAMP Kit from PerkinElmer

Row | Molecule | pIC50 [1] | pIC50 [2]
1 | CDATCQFRKAIDDCQKQAHHSNVPGSVFKACMKQRKKRWLAG-NH2 (disulfide 1-5, 14-31) [compound 126] | 9.00 to 11.00 | 9.00 to 11.00
2 | CC[C@H](C)[C@H](NC(=O)[C@H](C)NC(=O)[C@H](CCCCN)NC(=O)[C@H](CCCNC(=N)N)NC(=O)[C@H](Cc1ccccc1)NC(=O)[C@H](CCC(N)=O)NC(=O)[C@@H]1CSSC[C@H](N)C(=O)N[C@@H](CC(=O)O)C(=O)N[C@@H](C)C(=O)N[C@@H]([C@@H](C)O)C(=O)N1)C(=O)N[C@@H](CC(=O)O)C(=O)N[C@@H](CC(=O)O)C(=O)N[C@H]1CSSC[C@@H](C(=O)N[C@@H](CCSC)C(=O)N[C@@H](CCCCN)C(=O)N[C@@H](CCC(N)=O)C(=O)N[C@@H](CCCCN)C(=O)N[C@@H](CCCCN)C(=O)N[C@@H](CCCCN)C(=O)N[C@@H](CCC(=O)O)C(=O)N[C@@H](Cc2ccccc2)C(=O)N[C@@H](CCCCN)C(N)=O)NC(=O)[C@H](CCC(=O)O)NC(=O)[C@H](CCCCN)NC(=O)[C@H](Cc2ccccc2)NC(=O)[C@H](C(C)C)NC(=O)[C@H](CO)NC(=O)[C@H](CC(N)=O)NC(=O)[C@@H]2CCCN2C(=O)[C@H](C(C)C)NC(=O)[C@H](CC(N)=O)NC(=O)[C@H](CO)NC(=O)[C@H](Cc2c[nH]cn2)NC(=O)[C@H](Cc2c[nH]cn2)NC(=O)[C@H](C)NC(=O)[C@H](CCC(N)=O)NC(=O)[C@H](CCCCN)NC(=O)[C@H](CCC(N)=O)NC1=O [compound 311] (H-CDATCQFRKAIDDCQKQAHHSNVPNSVFKECMKQKKKEFK-NH2; disulfide 1-5, 14-31) | < 7.00 | 7.00 to 9.00
3 | CDATCQFRKAIDDCARQAHHSNVPGSVFKACLKQKKKEWKAGH (disulfide 1-5, 14-31) [compound 41] | 9.00 to 11.00 | 9.00 to 11.00
4 | CDATCQFRKAIDDCAKQAHHSNVPGSVFKACMKQKKKEWKAGH (disulfide 1-5, 14-31) [SEQ ID NO 152] | 9.00 to 11.00 | 9.00 to 11.00
5 | CC[C@H](C)[C@H](NC(=O)[C@H](C)NC(=O)[C@H](CCCCN)NC(=O)[C@H](CCCNC(=N)N)NC(=O)[C@H](Cc1ccccc1)NC(=O)[C@H](CCC(N)=O)NC(=O)[C@@H]1CSSC[C@H](N)C(=O)N[C@@H](CC(=O)O)C(=O)N[C@@H](C)C(=O)N[C@@H]([C@@H](C)O)C(=O)N1)C(=O)N[C@@H](CC(=O)O)C(=O)N[C@@H](CC(=O)O)C(=O)N[C@H]1CSSC[C@@H](C(=O)N[C@@H](CCSC)C(=O)N[C@@H](CCCCN)C(=O)N[C@@H](CCC(N)=O)C(=O)N[C@@H](CCCCN)C(=O)N[C@@H](CCCCN)C(=O)N[C@@H](CCCCN)C(=O)N[C@@H](CCC(=O)O)C(=O)N[C@@H](Cc2ccccc2)C(=O)N[C@@H](CCCCN)C(=O)N[C@@H](C)C(=O)NCC(=O)N[C@@H](Cc2ccc(O)cc2)C(=O)O)NC(=O)[C@H](C)NC(=O)[C@H](CCCCN)NC(=O)[C@H](Cc2ccccc2)NC(=O)[C@H](C(C)C)NC(=O)[C@H](CO)NC(=O)[C@H](CO)NC(=O)[C@H](Cc2c[nH]cn2)NC(=O)[C@H](C)NC(=O)[C@H](CCC(N)=O)NC(=O)[C@H](CCCCN)NC(=O)[C@H](C)NC1=O [compound 37] (H-CDATCQFRKAIDDCAKQAHSSVFKACMKQKKKEFKAGY-OH; disulfide 1-5, 14-26) | 7.00 to 9.00 | 9.00 to 11.00
6 | CDATCQFRKAIDDCARQAHHSNVPGSVFKAC[SeMet]KQKKKEWKAGH (disulfide 1-5, 14-31) [compound 7] | 9.00 to 11.00 | 9.00 to 11.00
